Measurements: patent publication US8933230B2, “Phosphorus-containing group-substituted quinoline, its preparation process, medical composition containing the compounds and application” (priority 2011, dated 2015)

Key:
Assay in all cases: KinomeScan kinase panel
Format in all cases: binding
SGK3 = molecular target: T1, SGK3 (Homo sapiens, UniProt Q96BR1)
T1 construct: purchased DiscoveRx Corporation (KinomeScan)
Summary of the method: (§1)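 Broad-panel profiling: KinomeScan, 442 wild-type and mutant kinases, each exposed to compound at 1000 nM.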

FLT3(K663Q) = molecular target: T2, FLT3(K663Q) (Homo sapiens, UniProt P36888, K663Q)
T2 construct: purchased DiscoveRx Corporation (KinomeScan)
Summary of the method: as §1

SIK = molecular target: T3, SIK (Homo sapiens, UniProt P57059)
T3 construct: purchased DiscoveRx Corporation (KinomeScan)
Summary of the method: as §1

RIOK2 = molecular target: T4, RIOK2 (Homo sapiens, UniProt Q9BVS4)
T4 construct: purchased DiscoveRx Corporation
Summary of the method: as §1

YANK3 = molecular target: T5, YANK3 (Homo sapiens, UniProt Q86UX6)
T5 construct: purchased DiscoveRx Corporation (KinomeScan service)
Summary of the method: as §1

JNK1 = molecular target: T6, JNK1 (Homo sapiens, UniProt P45983)
T6 construct: purchased DiscoveRx Corporation (KinomeScan)
Summary of the method: as §1

BRAF = molecular target: T7, BRAF (Homo sapiens, UniProt P15056)
T7 construct: purchased DiscoveRx Corporation (KinomeScan)
Summary of the method: as §1

MEK5 = molecular target: T8, MEK5 (Homo sapiens, UniProt Q13163)
T8 construct: purchased DiscoveRx Corporation (KinomeScan)
Summary of the method: as §1

[1] = molecular target: T9, ABL1(Y253F)-phosphorylated (Homo sapiens, UniProt P00519, Y253F)
T9 construct: purchased DiscoveRx Corporation (KinomeScan)
Summary of the method: as §1

LKB1 = molecular target: T10, LKB1 (Homo sapiens, UniProt Q15831)
T10 construct: purchased DiscoveRx Corporation (KinomeScan)
Summary of the method: as §1

PAK1 = molecular target: T11, PAK1 (Homo sapiens, UniProt Q13153)
T11 construct: purchased DiscoveRx Corporation (KinomeScan panel)
Summary of the method: as §1

[2] = molecular target: T12, ABL1(Q252H)-nonphosphorylated (Homo sapiens, UniProt P00519, Q252H)
T12 construct: purchased DiscoveRx Corporation (KinomeScan)
Summary of the method: as §1

MLK1 = molecular target: T13, MLK1 (Homo sapiens, UniProt P80192)
T13 construct: purchased DiscoveRx Corporation (KinomeScan)
Summary of the method: as §1

IKK-alpha = molecular target: T14, IKK-alpha (Homo sapiens, UniProt O15111)
T14 construct: purchased DiscoveRx Corporation (KinomeScan)
Summary of the method: as §1

PFTAIRE2 = molecular target: T15, PFTAIRE2 (Homo sapiens, UniProt Q96Q40)
T15 construct: purchased DiscoveRx Corporation (KinomeScan)
Summary of the method: as §1

PIK3C2B = molecular target: T16, PIK3C2B (Homo sapiens, UniProt O00750)
T16 construct: purchased DiscoveRx Corporation (KinomeScan)
Summary of the method: as §1

SRC = molecular target: T17, SRC (Homo sapiens, UniProt P12931)
T17 construct: purchased DiscoveRx Corporation (KinomeScan)
Summary of the method: as §1

DDR1 = molecular target: T18, DDR1 (Homo sapiens, UniProt Q08345)
T18 construct: purchased DiscoveRx Corporation (KinomeScan)
Summary of the method: as §1

NEK4 = molecular target: T19, NEK4 (Homo sapiens, UniProt P51957)
T19 construct: purchased DiscoveRx Corporation (KinomeScan panel)
Summary of the method: as §1

PIP5K2B = molecular target: T20, PIP5K2B (Homo sapiens, UniProt P78356)
T20 construct: purchased DiscoveRx Corporation (KinomeScan)
Summary of the method: as §1

BMPR2 = molecular target: T21, BMPR2 (Homo sapiens, UniProt Q13873)
T21 construct: purchased DiscoveRx Corporation (KinomeScan)
Summary of the method: as §1

TRKC = molecular target: T22, TRKC (Homo sapiens, UniProt Q16288)
T22 construct: purchased DiscoveRx Corporation (KinomeScan)
Summary of the method: as §1

ACVR1B = molecular target: T23, ACVR1B (Homo sapiens, UniProt P36896)
T23 construct: purchased DiscoveRx Corporation (KinomeScan)
Summary of the method: as §1

MEK2 = molecular target: T24, MEK2 (Homo sapiens, UniProt P36507)
T24 construct: purchased DiscoveRx Corporation (KinomeScan)
Summary of the method: as §1

PRKCI = molecular target: T25, PRKCI (Homo sapiens, UniProt P41743)
T25 construct: purchased DiscoveRx Corporation (KinomeScan)
Summary of the method: as §1

RIPK1 = molecular target: T26, RIPK1 (Homo sapiens, UniProt Q13546)
T26 construct: purchased DiscoveRx Corporation
Summary of the method: as §1

MAPKAPK5 = molecular target: T27, MAPKAPK5 (Homo sapiens, UniProt Q8IW41)
T27 construct: purchased DiscoveRx Corporation (KinomeScan)
Summary of the method: as §1

KIT(L576P) = molecular target: T28, KIT(L576P) (Homo sapiens, UniProt P10721, L576P)
T28 construct: purchased DiscoveRx Corporation (KinomeScan)
Summary of the method: as §1

GAK = molecular target: T29, GAK (Homo sapiens, UniProt O14976)
T29 construct: purchased DiscoveRx Corporation (KinomeScan)
Summary of the method: as §1

PIK3CA(E542K) = molecular target: T30, PIK3CA(E542K) (Homo sapiens, UniProt P42336, E542K)
T30 construct: purchased DiscoveRx Corporation (KinomeScan)
Summary of the method: as §1

PIM1 = molecular target: T31, PIM1 (Homo sapiens, UniProt P11309)
T31 construct: purchased DiscoveRx Corporation (KinomeScan)
Summary of the method: as §1

SNARK = molecular target: T32, SNARK (Homo sapiens, UniProt Q9H093)
T32 construct: purchased DiscoveRx Corporation (KinomeScan)
Summary of the method: as §1

NEK11 = molecular target: T33, NEK11 (Homo sapiens, UniProt Q8NG66)
T33 construct: purchased DiscoveRx Corporation (KinomeScan)
Summary of the method: as §1

FLT1 = molecular target: T34, FLT1 (Homo sapiens, UniProt P17948)
T34 construct: purchased DiscoveRx Corporation (KinomeScan)
Summary of the method: as §1

[3] = molecular target: T35, TYK2(JH1domain-pseudokinase) (Homo sapiens, UniProt P29597)
T35 construct: pseudokinase; purchased DiscoveRx Corporation (KinomeScan service)
Summary of the method: as §1

T30 sequence (P42336 whole entry E542K): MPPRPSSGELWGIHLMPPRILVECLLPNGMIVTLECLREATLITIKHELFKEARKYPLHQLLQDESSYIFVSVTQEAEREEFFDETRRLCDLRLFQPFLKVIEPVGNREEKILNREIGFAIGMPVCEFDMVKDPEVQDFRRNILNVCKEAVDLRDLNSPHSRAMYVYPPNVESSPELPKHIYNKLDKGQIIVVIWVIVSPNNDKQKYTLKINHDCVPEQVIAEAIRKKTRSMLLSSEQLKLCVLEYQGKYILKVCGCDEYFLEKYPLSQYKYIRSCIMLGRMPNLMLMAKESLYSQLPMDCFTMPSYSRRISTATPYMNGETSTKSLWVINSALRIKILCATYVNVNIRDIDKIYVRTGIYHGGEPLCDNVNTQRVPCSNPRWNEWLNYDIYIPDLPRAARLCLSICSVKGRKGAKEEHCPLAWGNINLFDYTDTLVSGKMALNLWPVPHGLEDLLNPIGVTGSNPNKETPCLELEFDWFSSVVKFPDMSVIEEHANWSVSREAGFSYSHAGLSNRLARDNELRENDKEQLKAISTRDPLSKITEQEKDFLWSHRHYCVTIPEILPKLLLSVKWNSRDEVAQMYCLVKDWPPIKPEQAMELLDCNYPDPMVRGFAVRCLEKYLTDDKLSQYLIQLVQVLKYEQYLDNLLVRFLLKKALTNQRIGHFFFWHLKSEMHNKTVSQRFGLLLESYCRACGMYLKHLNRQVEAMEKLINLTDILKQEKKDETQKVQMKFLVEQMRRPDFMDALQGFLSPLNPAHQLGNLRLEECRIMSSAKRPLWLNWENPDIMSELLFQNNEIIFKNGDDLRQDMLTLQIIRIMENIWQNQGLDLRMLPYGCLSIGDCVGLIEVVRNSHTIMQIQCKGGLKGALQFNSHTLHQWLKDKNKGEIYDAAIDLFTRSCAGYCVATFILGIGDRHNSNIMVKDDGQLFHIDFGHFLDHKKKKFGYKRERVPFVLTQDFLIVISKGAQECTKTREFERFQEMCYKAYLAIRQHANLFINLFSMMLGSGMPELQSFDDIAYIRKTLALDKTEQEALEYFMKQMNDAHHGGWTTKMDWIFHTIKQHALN
T33 sequence (Q8NG66 whole entry): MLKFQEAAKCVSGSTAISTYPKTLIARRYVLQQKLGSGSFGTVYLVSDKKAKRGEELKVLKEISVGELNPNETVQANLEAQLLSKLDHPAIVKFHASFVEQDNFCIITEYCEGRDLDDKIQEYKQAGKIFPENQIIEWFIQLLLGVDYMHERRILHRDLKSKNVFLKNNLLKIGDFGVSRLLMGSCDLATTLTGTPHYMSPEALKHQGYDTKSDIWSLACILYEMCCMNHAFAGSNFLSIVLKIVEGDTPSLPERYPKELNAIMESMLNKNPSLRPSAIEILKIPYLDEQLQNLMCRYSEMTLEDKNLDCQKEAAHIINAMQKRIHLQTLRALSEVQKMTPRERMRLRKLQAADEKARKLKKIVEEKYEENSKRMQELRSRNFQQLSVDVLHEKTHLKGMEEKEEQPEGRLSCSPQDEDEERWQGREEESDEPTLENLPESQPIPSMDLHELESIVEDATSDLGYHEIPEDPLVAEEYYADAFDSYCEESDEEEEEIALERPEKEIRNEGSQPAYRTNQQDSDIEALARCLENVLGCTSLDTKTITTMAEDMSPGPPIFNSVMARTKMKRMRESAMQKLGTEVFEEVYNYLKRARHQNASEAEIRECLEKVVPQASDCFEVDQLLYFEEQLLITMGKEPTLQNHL
T28 sequence (P10721 26-976 L576P): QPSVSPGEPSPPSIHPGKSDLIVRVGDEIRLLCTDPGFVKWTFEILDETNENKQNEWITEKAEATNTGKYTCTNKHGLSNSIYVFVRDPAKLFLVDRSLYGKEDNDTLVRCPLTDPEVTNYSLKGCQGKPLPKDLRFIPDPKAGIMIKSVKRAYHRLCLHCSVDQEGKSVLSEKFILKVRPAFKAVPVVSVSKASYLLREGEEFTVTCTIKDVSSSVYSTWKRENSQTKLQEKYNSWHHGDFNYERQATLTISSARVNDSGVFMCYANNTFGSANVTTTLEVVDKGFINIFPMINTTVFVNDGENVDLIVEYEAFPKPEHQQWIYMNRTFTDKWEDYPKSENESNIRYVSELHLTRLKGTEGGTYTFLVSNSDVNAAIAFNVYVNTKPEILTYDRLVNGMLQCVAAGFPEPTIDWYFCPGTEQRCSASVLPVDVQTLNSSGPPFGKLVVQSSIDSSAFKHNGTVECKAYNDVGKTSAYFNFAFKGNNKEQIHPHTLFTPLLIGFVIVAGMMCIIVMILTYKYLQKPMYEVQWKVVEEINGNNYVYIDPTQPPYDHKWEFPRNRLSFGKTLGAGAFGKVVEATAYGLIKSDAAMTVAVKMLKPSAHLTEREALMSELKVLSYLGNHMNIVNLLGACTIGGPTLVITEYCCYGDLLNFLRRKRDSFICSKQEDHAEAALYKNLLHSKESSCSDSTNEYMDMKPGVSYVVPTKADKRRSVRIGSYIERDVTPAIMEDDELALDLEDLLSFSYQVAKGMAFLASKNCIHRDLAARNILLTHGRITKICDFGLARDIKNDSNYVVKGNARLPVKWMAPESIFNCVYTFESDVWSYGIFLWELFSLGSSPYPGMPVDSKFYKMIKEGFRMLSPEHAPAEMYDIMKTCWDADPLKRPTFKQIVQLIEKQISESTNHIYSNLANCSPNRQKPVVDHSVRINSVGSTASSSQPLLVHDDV
T29 sequence (O14976 whole entry): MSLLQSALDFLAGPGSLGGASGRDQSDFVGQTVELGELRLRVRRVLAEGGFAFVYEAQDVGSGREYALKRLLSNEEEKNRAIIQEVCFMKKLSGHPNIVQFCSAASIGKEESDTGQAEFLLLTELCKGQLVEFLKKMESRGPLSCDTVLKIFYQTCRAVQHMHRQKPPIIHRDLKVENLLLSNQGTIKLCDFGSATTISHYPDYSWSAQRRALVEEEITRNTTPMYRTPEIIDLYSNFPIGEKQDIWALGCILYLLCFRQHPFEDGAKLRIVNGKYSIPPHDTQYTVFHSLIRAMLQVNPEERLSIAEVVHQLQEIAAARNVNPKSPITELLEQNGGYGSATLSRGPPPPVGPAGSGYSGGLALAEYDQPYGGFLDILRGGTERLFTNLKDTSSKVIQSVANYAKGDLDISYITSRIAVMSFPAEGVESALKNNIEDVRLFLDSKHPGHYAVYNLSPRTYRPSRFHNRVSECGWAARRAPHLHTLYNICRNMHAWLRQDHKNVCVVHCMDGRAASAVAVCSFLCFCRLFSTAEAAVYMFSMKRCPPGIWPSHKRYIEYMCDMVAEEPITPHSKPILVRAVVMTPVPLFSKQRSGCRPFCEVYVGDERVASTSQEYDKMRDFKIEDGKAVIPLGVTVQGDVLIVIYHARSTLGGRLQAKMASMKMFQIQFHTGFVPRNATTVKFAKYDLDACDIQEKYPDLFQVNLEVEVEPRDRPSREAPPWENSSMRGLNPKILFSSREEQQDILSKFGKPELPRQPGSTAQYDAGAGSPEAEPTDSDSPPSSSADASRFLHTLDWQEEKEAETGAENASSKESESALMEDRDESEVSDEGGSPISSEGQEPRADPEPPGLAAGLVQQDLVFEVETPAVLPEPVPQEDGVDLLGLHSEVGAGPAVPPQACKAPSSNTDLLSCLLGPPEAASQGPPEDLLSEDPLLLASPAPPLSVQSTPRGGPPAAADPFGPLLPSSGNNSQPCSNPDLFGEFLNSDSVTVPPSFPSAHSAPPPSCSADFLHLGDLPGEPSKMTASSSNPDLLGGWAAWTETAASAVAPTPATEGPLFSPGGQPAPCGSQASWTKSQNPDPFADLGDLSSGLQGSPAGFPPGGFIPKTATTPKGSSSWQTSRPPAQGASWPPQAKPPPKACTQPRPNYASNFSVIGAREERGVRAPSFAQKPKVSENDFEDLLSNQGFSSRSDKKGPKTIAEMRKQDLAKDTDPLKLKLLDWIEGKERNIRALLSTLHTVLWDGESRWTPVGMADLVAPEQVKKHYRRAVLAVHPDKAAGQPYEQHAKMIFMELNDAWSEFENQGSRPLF
T6 sequence (P45983 whole entry): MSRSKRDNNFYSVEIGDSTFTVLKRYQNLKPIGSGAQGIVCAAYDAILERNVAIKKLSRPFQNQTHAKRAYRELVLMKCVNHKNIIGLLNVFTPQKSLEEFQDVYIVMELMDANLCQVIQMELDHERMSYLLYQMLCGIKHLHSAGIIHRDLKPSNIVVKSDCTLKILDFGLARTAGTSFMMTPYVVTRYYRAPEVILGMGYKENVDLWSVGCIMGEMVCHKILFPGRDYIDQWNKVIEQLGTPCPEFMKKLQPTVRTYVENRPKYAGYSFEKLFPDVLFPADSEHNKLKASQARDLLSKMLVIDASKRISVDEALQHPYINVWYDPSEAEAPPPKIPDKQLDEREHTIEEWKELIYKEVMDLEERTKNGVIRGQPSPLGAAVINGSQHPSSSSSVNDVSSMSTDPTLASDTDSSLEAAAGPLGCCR
T23 sequence (P36896 24-505): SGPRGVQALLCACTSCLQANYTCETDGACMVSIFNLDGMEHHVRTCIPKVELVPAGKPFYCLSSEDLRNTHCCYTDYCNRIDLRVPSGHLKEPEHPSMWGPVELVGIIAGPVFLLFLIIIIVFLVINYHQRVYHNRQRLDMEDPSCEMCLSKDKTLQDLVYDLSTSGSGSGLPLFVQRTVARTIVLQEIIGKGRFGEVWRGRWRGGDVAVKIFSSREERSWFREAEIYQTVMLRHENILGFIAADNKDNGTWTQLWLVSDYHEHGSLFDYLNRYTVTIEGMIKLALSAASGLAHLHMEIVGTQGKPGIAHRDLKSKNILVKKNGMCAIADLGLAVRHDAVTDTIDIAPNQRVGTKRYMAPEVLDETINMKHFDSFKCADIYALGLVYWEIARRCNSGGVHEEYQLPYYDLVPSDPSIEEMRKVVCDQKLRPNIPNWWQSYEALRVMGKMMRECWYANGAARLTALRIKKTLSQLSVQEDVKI

With `CCOP(=O)(CN1CCC(COc2cc3nccc(Oc4ccc(NC(=O)C5(C(=O)Nc6ccc(F)cc6)CC5)cc4F)c3cc2OC)CC1)OCC` [Example 10, N1-[4-[[7-[[1-(diethoxyphosphorylmethyl)-4-piperidinyl]methoxyl]-6-methoxyl-4-quinolyl]oxyl]-3-fluorophenyl]-N1′-(4-fluorophenyl)cyclopropane-1,1-dicarboxamide] the “% Ctrl@1000 nM” value (SGK3) was 75 % Ctrl, the “% Ctrl@1000 nM” value (FLT3(K663Q)) was 0.55 % Ctrl and the “% Ctrl@1000 nM” value (SIK) was 60 % Ctrl. For the same compound, the “% Ctrl@1000 nM” value (RIOK2) was 100 % Ctrl, the “% Ctrl@1000 nM” value (YANK3) was 100 % Ctrl and the “% Ctrl@1000 nM” value (JNK1) was 80 % Ctrl. The “% Ctrl@1000 nM” value (BRAF) was 100 % Ctrl, the “% Ctrl@1000 nM” value (MEK5) was 0.25 % Ctrl and the “% Ctrl@1000 nM” value [1] was 32 % Ctrl. The “% Ctrl@1000 nM” value (LKB1) was 100 % Ctrl, the “% Ctrl@1000 nM” value (PAK1) was 37 % Ctrl and the “% Ctrl@1000 nM” value [2] was 2.4 % Ctrl. The “% Ctrl@1000 nM” value (MLK1) was 83 % Ctrl, the “% Ctrl@1000 nM” value (IKK-alpha) was 100 % Ctrl and the “% Ctrl@1000 nM” value (PFTAIRE2) was 87 % Ctrl. For the same compound, the “% Ctrl@1000 nM” value (PIK3C2B) was 100 % Ctrl, the “% Ctrl@1000 nM” value (SRC) was 3.2 % Ctrl and the “% Ctrl@1000 nM” value (DDR1) was 0 % Ctrl. The “% Ctrl@1000 nM” value (NEK4) was 100 % Ctrl, the “% Ctrl@1000 nM” value (PIP5K2B) was 100 % Ctrl and the “% Ctrl@1000 nM” value (BMPR2) was 100 % Ctrl. The “% Ctrl@1000 nM” value (TRKC) was 2.2 % Ctrl, the “% Ctrl@1000 nM” value (ACVR1B) was 100 % Ctrl and the “% Ctrl@1000 nM” value (MEK2) was 33 % Ctrl. The “% Ctrl@1000 nM” value (PRKCI) was 100 % Ctrl, the “% Ctrl@1000 nM” value (RIPK1) was 99 % Ctrl and the “% Ctrl@1000 nM” value (MAPKAPK5) was 100 % Ctrl. The “% Ctrl@1000 nM” value (KIT(L576P)) was 0 % Ctrl, the “% Ctrl@1000 nM” value (GAK) was 100 % Ctrl and the “% Ctrl@1000 nM” value (PIK3CA(E542K)) was 100 % Ctrl. For the same compound, the “% Ctrl@1000 nM” value (PIM1) was 96 % Ctrl, the “% Ctrl@1000 nM” value (SNARK) was 100 % Ctrl and the “% Ctrl@1000 nM” value (NEK11) was 100 % Ctrl. The “% Ctrl@1000 nM” value (FLT1) was 7.3 % Ctrl and the “% Ctrl@1000 nM” value [3] was 100 % Ctrl.
